Data on 3 molecules can be found in patent publication US20020155172A1, “Methods and compounds for decreasing cell toxicity or death” (priority 2000, published 2002).

What all share (type): cell-based
Test [1] concerns HeLa cells expressing Q79 expanded polyglutamine repeats. Put plainly: Cell death induced by TNF-α/CHX, Fas/CHX or H2O2. The note with it: 100 μM, one hour before the inducing agent; cell death 48 hours later. The method, then:
FIG. 5F is a graph of the effects of Congo red, ZVAD, or vehicle (NT) on cell death when the cells are induced to die by receptor mediated pathways (TNF-α/cycloheximide (CHX), Fas/cycloheximide (CHX)), or necrosis (hydrogen peroxide).
HeLa cells expressing Q79 expanded polyglutamine repeats were treated with 100 μM Congo red, or 100 μM ZVAD (a positive control) for one hour prior to the addition of the apoptosis-inducing agent, and cell death was determined 48 hours later. […] Finally we tested whether Congo red can inhibit apoptosis induced by overexpression of caspase-1, -8, or -11.

Test [2] deals with HeLa cells transfected with Q79-GFP. Put plainly: Cellular ATP levels (ATPLite) in Q79 expressing HeLa cells. The note with it: Q79-GFP, assayed 48 hours after transfection. The protocol:
We also investigated whether Congo red prevented other cellular events during cell death, including ATP depletion, caspase activation, and protein synthesis inhibition. HeLa cells were transfected with the Q79-GFP construct. Forty-eight hours later, the viability of cells expressing expanded polyglutamine repeats was determined by measuring cellular ATP levels, suing an ATPLite™ kit, according to the directions provided by the manufacturer (Packard, Co.) (FIG. 5A).
To determine the effect of Congo red (100 μM) on polyglutamine-induced cell toxicity. HeLa cells were transiently transfected with Q79-GFP, and six hours later were administered various concentrations of Congo red. Cell viability was assayed 72 hours after transfection, by measuring the level of ATP in each sample. ATP levels in cells expressing Q79 were determined by using the ATPLite™ kit as recommended by the manufacturer (Packard, Inc.). Briefly, cells were transfected with Q79 and treated 6 hours after transfection. Forty-two hours later, the levels of ATP were determined. (FIG. 5C).
(§1) A high-throughput method for identifying compounds that decrease cell toxicity or death has been designed. In this method, cells were seeded at 2×10^5 cells in 100 mm dishes. The next day the plated cells were transiently transfected with a plasmid encoding an expanded polyglutamine repeat, for example, Q79. Three hours later, transfection efficiency was assessed. Plates containing cells having 10-20% transfection efficiency at this 3 hour time point were trypsinized and re-plated at 600 or at 1500 cells per well in 384 well plates with clear bottoms. After 6 hours, the candidate compounds were added to the multi-well plates. The cells were cultured for 48 hours and ATP levels were determined using an ATPLite™ kit. Data was then expressed in either arbitrary units, or as relative ratio of ATP levels in Q79 transfected cells in compound-treated relative to vehicle-treated samples.
Derivatives of Congo red (commercially available from Sigma/Aldrich) were tested for their ability to alter cell toxicity and death by measuring ATP depletion and luciferase expression. The assay was carried out as described above for the high-throughput identification of compounds. Briefly, HeLa cells were transiently transfected with a Q79/GFP plasmid and were subsequently treated with various concentrations of Congo red, or 25 μM of each of Direct Orange 6, Direct Red 1, Direct Orange 1, Direct Black 51, Direct Orange 8, Direct Yellow 26, Direct Yellow 28, or Direct Blue 158. Drug treatment continued for 6 hours and then 48 hours later, ATP levels were measured in these cells and compared to the ATP levels in cells that were transiently transfected with GFP only, and also received the compound.
(ATP-based viability assays read luminescence as a measure of living cells.)

The test system of test [3] is non-transfected HeLa cells. Put plainly: Total cellular protein degradation. The note with it: Congo red 100 μM, ZVAD 100 μM, MG132 10 μM; H3-tyrosine release, 0 to 180 minutes. The protocol:
FIG. 8C is a graph of the effect of effect of Congo red, ZVAD, or the proteosome inhibitor MG132 on total cellular protein degradation in non-transfected HeLa cells.
To rule out the possibility that Congo red may have an effect on protein degradation in general, we tested the effect of Congo red on proteosome degradation. Rates of total cellular protein degradation experiments, from cells seeded in 12 well dishes at 2×10^4, treated with Congo red (100 μM), ZVAD (100 μM), or the proteosome inhibitor MG132 (10 μM) and labeled with 5 μCi/ml of H^3-tyrosine for 1 hour. One hundred microliter culture medium aliquots were collected at 0, 30, 60, 90, 120, and 180 minute time points, and the levels of H^3-tyrosine were determined using an LS6000 scintillation counter (Beckman, Co).

The subject of test [4] is Q79 transiently transfected HeLa cells. Put plainly: Cell protective effects by ATP depletion tests and luciferase activity analysis. To be noted: 5 μM or 25μM of the test compound. The protocol: as §1
The structures and ChemBridge library product numbers for the compounds that tested positively in the ATP depletion assays and luciferase assays are shown in FIGS. 14A-14L. In addition, derivatives of some of the identified compounds, as shown in FIGS. 14A-14F, were identified and tested for their cell protective effects, as assayed by ATP depletion tests and luciferase activity analysis after administration of Q79 transiently transfected HeLa cells with 5 μM or 25μM of the test compound. […]

Peptide text beside a SMILES is read from it. * marks the point of attachment. Cbz = O=C(OCc1ccccc1)*; CH2F = FC*

In the case of `COC(=O)C[C@H](NC(=O)[C@H](C)NC(=O)[C@@H](NC(=O)OCc1ccccc1)C(C)C)C(=O)CF` [ZVAD, reference compound] (Cbz-Val-Ala-Asp(OMe)-CH2F), the “cell death induced by TNF-α/CHX, Fas/CHX, or H2O2” value in test [1] was “effective in inhibiting both TNF-α- and Fas-induced apoptosis”. For the same molecule, the “ATP depletion upon expanded polyglutamine expression” value in test [2] is on record as “inhibited”. Further, the general protein degradation entry in test [3] was “neither Congo red nor ZVAD had any effect”.
Regarding `C/C(=N\NC(=S)N1CCCCC1)c1ccccc1` [PQIB], the “cell protective effect (ATP depletion tests and luciferase activity analysis)” value in test [4] is “cytoprotective”.
Still for that read-out and setting: the result for `CC(=O)Nc1ccc(-c2ccc(NC(C)=O)cc2)cc1` [PQIG] reads “cytoprotective”.
